According to PubChem BioAssay AID686920 (Broad Institute, 2013):

What follows are molecules tested on A673 NR0B1-luciferase reporter, viability-normalised luminescence (assay: suppressors of NR0B1-promoter luciferase reporter, dose response, EWS/Fli inhibitor project, luciferase luminescence, A673 cells, cherry-pick (AID 686920)).
For `C[C@@H]1O[C@@H](O[C@H]2C[C@@H](O)[C@]3(CO)[C@H]4[C@H](O)C[C@]5(C)[C@@H](C6COC(=O)C6)CC[C@]5(O)[C@@H]4CC[C@]3(O)C2)[C@H](O)[C@H](O)[C@H]1O` (stereo partly drawn), the AC35 was 1.24 µM. `Cc1cc(C)cc(N2C(=O)NC(=O)/C(=C\C=C\c3ccco3)C2=O)c1` was tested, and the AC35 was 4.31 µM. For `Oc1cccc(-c2nnc(-c3cccc(O)c3)nn2)c1`, the AC35 was 7.64 µM. `C[C@@H]1CN([C@@H](C)CO)C(=O)c2cc(NS(=O)(=O)c3ccccc3)ccc2O[C@@H]1CN(C)Cc1ccc(C(=O)Nc2ccccc2N)cc1` gave an AC35 of 9.16 µM. For `O=C(c1nnsc1S(=O)c1ccc(Cl)cc1)N1CCOCC1` (stereo not drawn), the AC35 was 14.1 µM. `COc1cccc(CN2CCC2(C)C(=O)Nc2cccc3cccnc23)c1F` (stereo not drawn) was tested, and the AC35 was 14.7 µM. `C[C@@H]1CCCCO[C@@H](CN(C)C(=O)Cc2ccccc2)[C@@H](C)CN([C@@H](C)CO)C(=O)c2cc(NS(=O)(=O)c3ccc(F)cc3)ccc2O1` gave an AC35 of 43.9 µM. Work on `OCCN1CCN(C(=S)c2ccc(-c3ccccc3)cc2)CC1` yielded an AC35 of 1.94 µM. `COc1ccc(C(=O)Nc2cccc(C(=O)N/N=C/c3ccc(OC)cc3OC)c2)cc1` gave an AC35 of 31.2 µM. `O=C(/C=C/c1ccc(Cl)cc1Cl)N(Cc1ccc(Cl)cc1)C1CCS(=O)(=O)C1` (stereo not drawn) was tested, and the AC35 was 33.5 µM. `CCC(C)Cn1c(O)cc2nn(-c3nc4ccccc4s3)c(=O)c-2c1C` (stereo not drawn) was tested, and the AC35 was 1.57 µM. With `CC(=NNc1ccc2ccccc2n1)c1ccccn1` the AC35 was 0.597 µM. `Cc1ccc2c(=O)n3c(nc2c1)C(Cc1ccc(O)cc1)NC(=O)c1cc2ccccc2cc1-3` (stereo not drawn) was tested, and the AC35 was 6.25 µM. With `OCC1OC(n2cnc3c(NCc4ccco4)ncnc32)C(O)C1O` (stereo not drawn) the AC35 was 2.81 µM. In the case of `COc1cccc(Sc2ccccc2/C=N/NC(N)=O)c1`, the AC35 is reported as 2.17 µM. In the case of `O=C1c2ccccc2C(=O)N1CCCCNc1ccccc1`, the AC35 is reported as 3.44 µM. Molecule `C=C1C(=O)[C@@]23[C@H](O)C[C@@H]4C(C)(C)CC[C@H](O)[C@@]4(C)[C@@H]2CC[C@@H]1[C@H]3O` has an AC35 of 9.06 µM. `Nc1ccc(Oc2cccc(Oc3ccc(N)cc3)c2)cc1` showed an AC35 of 1.15 µM. In the case of `C[C@H]1CN([C@@H](C)CO)C(=O)Cc2cc(NC(=O)CCCCCC(=O)Nc3ccccc3N)ccc2O[C@H]1CN(C)Cc1ccc(Cl)c(Cl)c1`, the AC35 is reported as 4.68 µM. Work on `N#C[C@H]1[C@H](c2ccc(-c3ccccc3F)cc2)[C@@H](CO)N1C(=O)c1ccccn1` yielded an AC35 of 9.49 µM. With `CCc1ccc(N2C=C(C(=O)OC)C(c3ccc(OC)cc3)C(C#N)=C2N)cc1` (stereo not drawn) the AC35 was 5.38 µM. `CCCCNC(=O)C(c1ccc(OCC(=O)OC)c(C(=O)OC)c1)N(CCOC)C(=O)CCCCCN1C(=O)NC(c2ccc(-c3ccccc3)cc2)C(C(=O)OCc2ccccc2)=C1C` (stereo not drawn) was tested, and the AC35 was 40.4 µM. Molecule `CC(=NNc1ccc2ccccc2n1)c1ccccc1O` has an AC35 of 5.09 µM. `C[C@@H]1CN([C@H](C)CO)C(=O)c2cc(C#CCN(C)C)cnc2O[C@H]1CN(C)Cc1ccc(-c2ccccc2)cc1` gave an AC35 of 10.9 µM. In the case of `CCc1ccc(/C=C2\SC(=S)N(CCC(=O)Nc3cc(C)on3)C2=O)cc1`, the AC35 is reported as 6.38 µM. `COc1ccc(-c2cc(CNc3nc(NC(C)C)nc4cc(-c5ccccc5)sc34)on2)cc1` showed an AC35 of 15.7 µM. With `COc1ccc(/C=C2\SC(=S)N(CCCC(=O)NNC(=O)c3ccccc3O)C2=O)cc1` the AC35 was 9.15 µM. Molecule `CC(=O)ON=C1C=CC(=C(C#N)c2ccccc2)C=C1` has an AC35 of 13.3 µM. Molecule `CCCNC(=O)N1[C@H](C#N)[C@H](c2ccc(C#Cc3ccc(F)cc3)cc2)[C@H]1CO` has an AC35 of 10.1 µM. Molecule `O=c1[nH]c(=O)n([C@H]2C[C@H](O)[C@@H](CO)O2)cc1F` has an AC35 of 2.63 µM. Molecule `COc1cc(OC)cc(-c2cc3nc(C)c(CCC(=O)NCc4ccccc4)c(C)n3n2)c1` has an AC35 of 3.44 µM. `C[C@@H]1CN([C@@H](C)CO)C(=O)c2cc(NS(=O)(=O)c3ccc(Cl)cc3)ccc2O[C@@H]1CN(C)Cc1ccc(C(=O)Nc2ccccc2N)cc1` was tested, and the AC35 was 7.36 µM. Molecule `COc1ccc(/C=C/C(=O)c2ccc(C(=O)/C=C/c3ccc(OC)c(OC)c3)cc2)cc1OC` has an AC35 of 6.78 µM. Work on `O=c1[nH]c(/C=C2\C=Nc3ccccc32)c(O)n1Cc1ccccc1F` yielded an AC35 of 4.21 µM. `CC(C)Oc1ccc(Br)cc1C(=O)N/N=C/c1c[nH]c2ccccc12` showed an AC35 of 17.2 µM. `O=C(O)c1ccc(N/N=C/c2ccc(OC(=O)c3cccc(Cl)c3)cc2)cc1` was tested, and the AC35 was 7.06 µM. `COc1cccc(-c2cccc(-c3nc(C(=O)NCC(F)(F)F)cc4c3[C@H](CCO)N([S@@](=O)C(C)(C)C)C4)c2)c1` was tested, and the AC35 was 3.19 µM. With `C[C@H](CO)N1C[C@H](C)[C@H](CN(C)Cc2ccc(C(=O)Nc3ccccc3N)cc2)Oc2ccc(NC(=O)C3CC3)cc2CC1=O` the AC35 was 37.8 µM. For `COc1ccc(NS(=O)(=O)c2cc(NC(=O)CNC(=O)c3cccc(OC)c3)ccc2C)cc1`, the AC35 was 66.3 µM. For `C[C@@H]1CN([C@@H](C)CO)C(=O)Cc2cc(NC(=O)C3CCCCC3)ccc2O[C@H]1CN(C)Cc1ccc(C(=O)Nc2ccccc2N)cc1`, the AC35 was 29.1 µM. `Cc1ccccc1S(=O)(=O)N1CC[C@@H]2[C@@H](CO)Nc3ccc(-c4ccc(C#N)cc4)cc3[C@@H]21` gave an AC35 of 5.42 µM. With `CCN1/C(=C/C=C/c2oc3ccc(-c4ccccc4)cc3[n+]2CC)Oc2ccc(-c3ccccc3)cc21` the AC35 was 2.49 µM. Work on `CC(C)(C)C(=O)Cn1ncc(Cl)c(Cl)c1=O` yielded an AC35 of 12.9 µM. `CN(C)c1ccc(-c2ccnc3c2CC(C)(C(=O)NCc2ccco2)O3)cc1` (stereo not drawn) showed an AC35 of 6.85 µM. With `CCn1c(C)cc(C(=O)CN2C(=O)c3ccccc3S2(=O)=O)c1C` the AC35 was 1.23 µM. For `C/C(=N\NC(=O)c1n[nH]c2c1CCC2)c1cccs1`, the AC35 was 1.78 µM. `CC(C)(C)c1ccc(Oc2ccc(NC(=O)C3CC=CCC3C(=O)O)cc2)cc1` (stereo not drawn) showed an AC35 of 40.5 µM. In the case of `COc1ccc(C2c3cc4c(cc3OC(NNC(N)=O)C2C)OCO4)cc1` (stereo not drawn), the AC35 is reported as 14 µM. `COc1ccc(S(=O)(=O)Nc2ccc3c(c2)C(=O)N([C@H](C)CO)C[C@@H](C)[C@@H](CN(C)Cc2ccc(C(=O)Nc4ccccc4N)cc2)O3)cc1` was tested, and the AC35 was 5.11 µM. In the case of `C(=Cc1cnc2ccccc2n1)c1ccc2c(c1)OCO2`, the AC35 is reported as 1.12 µM. For `O=c1[nH]c(=O)n([C@H]2C[C@H](O)[C@@H](CO)O2)cc1C(F)(F)F`, the AC35 was 3.33 µM. `CC1=NN(c2ccc(C)cc2)C(=O)/C1=C\C=C\c1ccccc1` showed an AC35 of 10.2 µM. `COc1ccc(S(=O)(=O)N2CCCc3nc(-c4ccc(F)cc4)ccc32)cc1` showed an AC35 of 4.87 µM. With `Cc1ccc(S(=O)(=O)Nc2ccc3c(c2)C(=O)N([C@@H](C)CO)C[C@H](C)[C@@H](CN(C)Cc2ccc(C(F)(F)F)cc2)OCCCC[C@@H](C)O3)cc1` the AC35 was 10.2 µM. For `C[C@@H]1CN([C@H](C)CO)S(=O)(=O)c2ccc(C#CC(C)(C)O)cc2O[C@H]1CN(C)Cc1ccc(-c2ccccc2)cc1`, the AC35 was 4.22 µM. With `C[C@@H]1O[C@@H](O[C@@H]2C=C3CC[C@@H]4C(CC[C@]5(C)[C@@H](c6ccc(=O)oc6)CC[C@]45O)[C@@]3(C)CC2)[C@H](O)[C@H](O)[C@H]1O` (stereo partly drawn) the AC35 was < 0.03 µM. `Cc1nc(N)nc(N)c1-c1ccc(Cl)c(Cl)c1` showed an AC35 of 0.495 µM. In the case of `Cc1cc(C(=O)Nc2ccc3c(c2)C(=O)N(C)[C@@H]2CC[C@H](CC(=O)N[C@H](C)c4ccccc4)O[C@H]2CO3)no1`, the AC35 is reported as 10.2 µM. Work on `O=C1CCC2S/C(=C/Nc3ccc(C(F)(F)F)cc3)C(=O)N12` (stereo not drawn) yielded an AC35 of 0.385 µM. In the case of `CN1C(=O)c2cc(NC(=O)c3ccc(C(F)(F)F)cc3)ccc2OC[C@@H]2O[C@@H](CC(=O)NC3Cc4ccccc4C3)CC[C@H]21`, the AC35 is reported as 8.33 µM. In the case of `N#C[C@H]1[C@H](c2ccc(C#Cc3ccccc3F)cc2)[C@@H](CO)N1C(=O)C1CCCCC1`, the AC35 is reported as 19.5 µM. `C[C@H](CO)N1C[C@H](C)[C@H](CN(C)Cc2ccc(C(F)(F)F)cc2)Oc2c(NS(=O)(=O)c3ccc(Cl)cc3)cccc2C1=O` gave an AC35 of 43.4 µM. `COC(=O)CC1(C(=O)OC)Oc2ccc(Br)cc2C(=O)N1c1cccc(Cl)c1Cl` (stereo not drawn) showed an AC35 of 15 µM.
